According to PubChem BioAssay (NCI):
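Compound exposure: 48 hours, 5 concentrations, 96-well plates. TGI is the concentration that stops growth completely.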

Legend:
Test in all cases: DTP human tumour cell line panel, 48 h
SN12C renal = system: SN12C renal
NCI-H23 lung = system: NCI-H23 lung
SK-MEL-5 melanoma = system: SK-MEL-5 melanoma
PC-3 prostate = system: PC-3 prostate
IGROV1 ovarian = system: IGROV1 ovarian
NCI-H522 lung = system: NCI-H522 lung
HT29 colon = system: HT29 colon
MALME-3M melanoma = system: MALME-3M melanoma
SR leukemia = system: SR leukemia
SF-295 CNS = system: SF-295 CNS
COLO 205 colon = system: COLO 205 colon
OVCAR-8 ovarian = system: OVCAR-8 ovarian
HCC-2998 colon = system: HCC-2998 colon
HS 578T breast = system: HS 578T breast
OVCAR-3 ovarian = system: OVCAR-3 ovarian
RXF 393 renal = system: RXF 393 renal
MCF7 breast = system: MCF7 breast
CAKI-1 renal = system: CAKI-1 renal

SMILES | TGI (SN12C renal) [µM] | TGI (NCI-H23 lung) [µM] | TGI (SK-MEL-5 melanoma) [µM] | TGI (PC-3 prostate) [µM] | TGI (IGROV1 ovarian) [µM] | TGI (NCI-H522 lung) [µM] | TGI (HT29 colon) [µM] | TGI (MALME-3M melanoma) [µM] | TGI (SR leukemia) [µM] | TGI (SF-295 CNS) [µM] | TGI (COLO 205 colon) [µM] | TGI (OVCAR-8 ovarian) [µM] | TGI (HCC-2998 colon) [µM] | TGI (HS 578T breast) [µM] | TGI (OVCAR-3 ovarian) [µM] | TGI (RXF 393 renal) [µM] | TGI (MCF7 breast) [µM] | TGI (CAKI-1 renal) [µM]
C=CC(C)CCC(C/C=C(\C)CCC=C(C)C)C(=C)CCCC(C)C (centres undefined) | > 100 | > 100 | > 100 | > 100 | > 100 | > 100 | > 100 | > 100 | > 100 | > 100 | > 100 | > 100 | > 100 | > 100 | > 100 | > 100 | > 100 | > 100
C=CCNC1=C2C[C@@H](C)C[C@@H](OC)[C@H](OC(=O)CN)[C@H](C)/C=C(\C)[C@@H](OC(N)=O)[C@H](OC)/C=C\C=C(/C)C(=O)NC(=CC1=O)C2=O | 17.1 | 21.3 | 17.9 | 11.9 | 15.5 | 18.8 | 17.6 | 21.8 | > 40 | 12.6 | 5.23 | 18.3 | 1.29 | 80.1 | 7.41 | 17 | 12.8 | 18.1
CCOC(=O)/C=C(/C(=O)OCC)n1ccc(=O)n(/C(=C/C(=O)OCC)C(=O)OCC)c1=O | 17.9 | 42.7 | 28.6 | 29 | 31.4 | 3.53 | 26.8 | 8.15 | 13.5 | 55.1 | 3.79 | 23.2 | 35 | 45.5 | 16.9 | 9.62 | 19.9 | 3.23
COC(=O)[C@@H]1C[C@H]([Se]c2ccccc2)CN1C(=O)OCc1ccccc1 | > 100 | 99.2 | 30.6 | > 100 | > 100 | > 100 | 70.4 | 77.2 | > 100 | > 100 | 54.5 | > 100 | > 100 | > 100 | 67.1 | 84.3 | 41.5 | > 100
CC1OC(OC2C(O)COC(OC3C(C)OC(OC4C(OC(=O)[C@]56CCC(C)(C)C[C@@H]5C5=CCC7[C@@]8(C)C[C@H](O)[C@H](OC9OC(CO)C(O)C(OC%10OC(CO)C(O)C(O)C%10O)C9O)[C@@](C)(CO)[C@@H]8CC[C@@]7(C)[C@]5(C)CC6)OCC(O)C4O)C(O)C3O)C2O)C(O)C(O)C1O (some centres undefined) | 25.2 | 31 | 30.3 | 23.9 | – | 31.4 | 31.5 | 30.8 | 25.8 | 28.4 | 18.1 | 32.8 | 32.9 | 40.9 | 29.4 | 27.9 | 36.1 | 19.1
COc1cc2c(cc1O)[C@@H]1Cc3c(cc(OC)c(OC)c3Oc3cc4c(cc3OC)CCN(C)[C@@H]4Cc3ccc(O)cc3)[C@H](C2)N1C | > 100 | > 100 | 30.1 | > 100 | > 100 | 67 | > 100 | 32.2 | 19.3 | > 100 | 38.2 | > 100 | > 72 | > 100 | > 100 | 37.4 | > 100 | > 100
C[C@]12[C@@H]3CC[C@H]1[C@@H](OC(=O)Nc1cc([N+](=O)[O-])cc([N+](=O)[O-])c1)C(=O)N2CC3 | > 100 | > 100 | > 100 | > 100 | > 100 | > 100 | > 100 | > 100 | > 100 | > 100 | > 100 | > 100 | > 100 | > 100 | – | > 100 | > 100 | > 100
COc1ccc(C2SC(C)C(=O)N2c2nc(-c3nc(-c4ccc(Cl)cc4)cs3)cs2)cc1 (centres undefined) | > 100 | > 100 | > 100 | > 100 | > 100 | > 100 | > 100 | > 100 | > 100 | > 100 | > 100 | > 100 | > 100 | > 100 | > 100 | > 100 | > 100 | > 100
OC1CN2Cc3cc4c(cc3[C@]13C=C[C@@H](O)CC23)OCO4 (some centres undefined) | > 100 | > 100 | > 100 | > 100 | > 100 | > 100 | > 100 | > 100 | > 100 | > 100 | > 100 | > 100 | – | > 100 | > 100 | 58.6 | > 100 | > 100
S=c1sc2nc(Cl)nc(Cl)c2s1 | 32.4 | 39.3 | 21.6 | 27.9 | 27.7 | 25.2 | 23.5 | 23.2 | 21.2 | 31.7 | 20.4 | 29.8 | 31.6 | 60.4 | 25.2 | 26 | 25.2 | 17.8
COc1cc2cc(C(=O)N3CC(CCl)c4ccccc43)[nH]c2c(OC)c1OC (centres undefined) | 55.2 | > 100 | > 100 | > 100 | > 100 | > 100 | > 57.9 | > 100 | > 100 | > 100 | > 100 | > 100 | > 100 | > 100 | > 100 | > 100 | > 100 | > 100
O=[N+]([O-])/C(C(Cl)=C(Cl)Cl)=C(/Sc1ccccc1)N1CCCCC1 | > 100 | > 100 | > 88.1 | > 100 | > 100 | > 100 | > 100 | > 100 | > 26.4 | > 100 | > 100 | > 100 | > 100 | > 100 | > 100 | > 100 | > 100 | > 100
Cc1c(C)c(S(=O)(=O)N(CCCN)OCCCN)c(C)c2c1OC(C)(C)C2 | > 100 | > 100 | > 100 | 43.3 | 45.8 | 30.6 | > 100 | 42.1 | > 100 | 98.9 | 32.5 | > 100 | 40.9 | 40.3 | > 100 | 48.9 | 38.4 | > 100
COC(=O)c1ccccc1/C=C1\Cc2cc(C)c(C)cc2C1=O | > 100 | – | > 100 | > 100 | > 100 | > 100 | > 100 | > 100 | > 100 | > 100 | > 100 | > 100 | > 100 | > 100 | > 100 | > 100 | > 100 | > 100
NCCN1CC2CCC(CC2)C1 | > 10 | > 10 | > 10 | > 10 | > 10 | > 10 | > 10 | > 10 | > 10 | > 10 | > 10 | > 10 | > 10 | > 10 | > 10 | > 10 | > 10 | > 10
CCc1c(Cc2cc(C)cc(C)c2)n2c(nc1=O)SCC2CBr (centres undefined) | > 50 | > 50 | > 50 | > 50 | > 50 | > 50 | > 50 | > 50 | > 50 | – | > 50 | 40.4 | > 50 | > 50 | – | > 50 | > 50 | > 50
O=C(/C=C/c1ccc(O)c(O)c1O)OCCc1ccccc1 | 34.4 | 48.7 | > 100 | > 100 | 84.5 | 54.9 | 53.4 | > 100 | 40.6 | 35.5 | 64.5 | – | > 100 | > 100 | 46.5 | 98.2 | 32.2 | > 100
CC(=O)OC1CC[C@]2(C)C3CC[C@@]4(C)C(CCC4[C@H](C)CCCC(C)C)[C@@H]3CCC2(Br)C1 (some centres undefined) | > 50 | 36.5 | – | 37.7 | 29.7 | 29.1 | > 50 | 23.2 | 24.8 | > 50 | 20.9 | 26.5 | > 50 | 30.4 | 42.5 | 21.9 | 23.3 | 25
C=C(Cl)C(=C)CCC(Cl)C(C)C (centres undefined) | > 100 | > 100 | > 100 | > 100 | > 100 | > 100 | > 100 | > 100 | > 100 | > 100 | > 100 | – | > 100 | > 100 | > 100 | > 100 | > 100 | > 100
CC#CCCN(CC#N)Cc1ccccc1 | > 100 | > 100 | > 100 | > 100 | > 100 | > 100 | > 100 | > 100 | > 100 | > 100 | > 100 | > 100 | > 100 | > 100 | – | > 100 | 44.7 | > 100
COc1cc2c(cc1OC)C(N)CC2=O (centres undefined) | > 100 | > 100 | > 100 | > 100 | > 100 | > 100 | > 100 | – | > 100 | > 100 | > 100 | > 100 | > 100 | > 100 | > 100 | > 100 | > 100 | > 100
COc1cc(/C=C/c2cc(/C=C/c3ccc(O)c(OC)c3)oc(=O)c2)ccc1O | > 71.4 | > 24.7 | > 100 | 20.3 | 19.9 | > 23.9 | > 22.6 | 10.7 | > 31.2 | 19.4 | > 73.2 | > 100 | – | > 85.3 | 5.68 | 1.08 | > 100 | 16.1
c1ccc(C[n+]2cccc(-c3cc4ccccc4[nH]3)c2)cc1 | 42.6 | 71 | 23.8 | > 100 | 42.6 | 53.9 | > 100 | 34.1 | > 100 | > 100 | 28.8 | > 100 | – | > 100 | > 100 | > 100 | 98.8 | > 100
CN(CCCNC(=O)c1nn(-c2ccc(Cl)cc2Cl)c2c1ccc1ccccc12)CCCNC(=O)c1nn(-c2ccc(Cl)cc2Cl)c2c1ccc1ccccc12 | 3.14 | 3.26 | 3.42 | 3.08 | 3.2 | 2.83 | 3.04 | 3.58 | 1.58 | 3.06 | 3.71 | – | 2.91 | 3.18 | 3.14 | 3.12 | 2.9 | 3.05
Cc1cc(OCC(=O)N/N=C/C(Br)=C/c2ccccc2)nc(SCC(=O)N/N=C/C(Br)=C/c2ccccc2)n1 | > 100 | > 100 | > 100 | > 100 | > 100 | > 100 | > 100 | – | > 100 | > 100 | > 100 | – | 82.9 | > 100 | > 100 | > 100 | > 100 | > 100
